Test system: B16F10 tumors
Assay: Five-day treatment of B16F10 tumors: cell death and tumor immune microenvironment
Format: in vivo, C57BL/6J mice
Description: Figure 5 LD4172 alters the tumor immune microenvironment. A. Representative immunofluorescent images depict RIPK1, Calreticulin, CD8, CD4, Foxp3, or F4/80, as well as hematoxylin and eosin (H&E) images, alongside representative images illustrating cleaved caspase3/7 levels in B16F10 tumors under the indicated treatment for five days. n = 4–6 independent fields per group. Scale bars are shown as follows: 20 μm, objective 60X; 200 μm, objective 60X. B. The mouse plasma HMGB1 level from different treatment groups (n=8). C-G. Flow cytometry quantification of PD1+CD8+ T cells (C), CD4+ T cells (D), cDC cells (E), macrophages (F), and CD8+ T cells (G) in B16F10 tumors following 5 days of indicated treatment (n = 10/group). H. Flow cytometric quantification of IFNγ+ CD8+ T cells in B16F10 tumors treated with the indicated treatments for 5 days and stimulated with PMA/ionomycin in vitro for 6 h (n = 10/group). I. Tumor volume (mm3) of vehicle-, anti-PD1-, LD4172-, anti-PD1+LD4172-, and anti-PD1+LD4172+anti-CD8–treated B16F10 tumors (n=8). J. Heat map showing log 10-fold changes in the concentration of mouse plasma cytokines normalized by the mean value of control mice (n=8). For all experiments: LD4172: 20 mg/kg; anti-PD1 antibody: 100 μg/mice; Combo: LD4172 plus anti-PD1. Representative data from at least three independent experiments are shown. Data are expressed as the mean ± SEM. * p<0.05; ** p<0.01; *** p<0.001; **** p<0.0001, respectively. “ns” indicates no statistical significance.
Tumors were collected on day 13, weighed, mechanically diced, and digested with liberase (2 mg/mL, 05401020001, Roche) and DNase I (50 μg/mL, 11284932001, Sigma-Aldrich) at 37°C for 30 minutes with rotation. Single-cell suspensions were obtained by filtering the digested tissues through a 45 μm strainer, after which erythrocytes were removed using 1x RBC lysis buffer (420301, Biolegend). To stain the cell surface markers of tumor-infiltrating lymphocytes (TILs), single-cell suspensions were blocked with anti-mouse CD16/32 (156603, BioLegend) for 10 minutes on ice, and then incubated with fluorochrome-labeled antibodies diluted with staining buffer (1:50, PBS, 2% FBS, 0.1% EDTA) for 30 minutes on ice in the dark. Dead cells were excluded using DAPI (1:1,000, BioLegend). After washing, cells were resuspended in 300–500 μL staining buffer for flow cytometry analysis. For intracellular cytokine staining, cells were incubated in culture medium (RPMI-1640, 10% FBS, Brefeldin A or Cell Activation Cocktail (with Brefeldin A)) at 37°C for 6 h. Cells were stained with eBioscience™ Fixable Viability Dye eFluor™ 450, TruStain FcX™ PLUS and surface CD45, CD3ε, CD8a. Cells were fixed-permeabilized by Intracellular Fixation & Permeabilization Buffer Set (Biolegend, 421403) according to the manufacturer’s protocol. Then cells were stained with anti-IFNγ (XMG1.2) for 1 hour at room temperature (RT). Cells were resuspended in FACS buffer and subjected to BD LSR-II for analysis.
Mouse serum was analyzed using multiplex immunoassays designed for mice (Mouse Cytokine Array / Chemokine Array 31-Plex (MD31) from Eve Technologies), with 8 replicates from each group. Heatmaps display relative cytokine expression values normalized to vehicle-treated samples. Serum HMGB1 was analyzed by ELISA (NOVUS, NBP2–62767) according to the manufacturer’s protocol.
For H&E staining, the hydrated slides were stained with hematoxylin and eosin. For IHC analysis, after hydration, the sections were subjected to antigen retrieval by incubating in citrate buffer (pH 6.0), Tris EDTA buffer (pH 9.0), or EDTA buffer (pH 8.0) at 121°C for 15 minutes. Endogenous peroxidase was blocked with 3% H2O2 in PBS, and non-specific binding was blocked with 2.5% normal serum for 1 hour at room temperature. The sections were then incubated with the respective primary antibodies overnight at 4°C. […]

Q: Which “RIPK1 degradation in the tumor” value (20 mg/kg) does the source give for `Cc1ncsc1-c1ccc([C@H](C)NC(=O)[C@@H]2C[C@@H](O)CN2C(=O)[C@@H](NC(=O)CCCCCCCCCCC(=O)NCCCn2cc(-c3ccc4c(c3)CCN4C(=O)Cc3cccc(OC(F)(F)F)c3)c3c(N)ncnc32)C(C)(C)C)cc1` [LD4172] here?
A: substantial degradation of RIPK1

Q: What about the “cell death in the tumor (H&E)” value (20 mg/kg) of the same compound?
A: significant cell death

Q: And the “cleaved caspase 3/7 levels in tumors” value (20 mg/kg)?
A: notable increase

Q: What about the “plasma HMGB1 levels” value (20 mg/kg) of the same compound?
A: significant increase

Q: And the “CD4 + T cells, conventional dendritic cells and macrophages within the TME” value (20 mg/kg, flow cytometry)?
A: notable expansion

Q: And the “cytotoxic CD8 + T cells within the TME, combined with anti-PD1” value (LD4172 20 mg/kg plus anti-PD1 100 μg)?
A: increased infiltration
